Laboratory results reported in patent publication US11298363B2, “Triazolobenzazepines as vasopressin V1a receptor antagonists” (RICHTER GEDEON NYRT., priority 2017, dated 2022).

How the values were obtained:
[1] = molecular target: T1, human vasopressin V1a receptor (Homo sapiens, UniProt P37288); assay: Human vasopressin V1a receptor binding assay; conditions: 1321N1 cell membranes, [3H]vasopressin; read-out: Ki (nM) on hV1a cell line
Method in brief: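 Radioligand competition on membranes from cells expressing human V1a receptor; incubation 60 minutes at 27° C., non-specific binding with 1.2×10^−6 M unlabeled (Arg^8)-vasopressin, filtration separation. Ki by Cheng-Prusoff using Scatchard-derived KD, from at least two independent experiments.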

[2] = molecular target: T1, human vasopressin V1a receptor; assay: Functional assay on human vasopressin V1a receptor expressing cell line (intracellular Ca2+ fluorescence); type: cell-based; conditions: 1321N1 cells, (Arg8)-vasopressin at EC80; read-out: IC50 (nM) on hV1a cell line

T1 sequence (P37288 whole entry): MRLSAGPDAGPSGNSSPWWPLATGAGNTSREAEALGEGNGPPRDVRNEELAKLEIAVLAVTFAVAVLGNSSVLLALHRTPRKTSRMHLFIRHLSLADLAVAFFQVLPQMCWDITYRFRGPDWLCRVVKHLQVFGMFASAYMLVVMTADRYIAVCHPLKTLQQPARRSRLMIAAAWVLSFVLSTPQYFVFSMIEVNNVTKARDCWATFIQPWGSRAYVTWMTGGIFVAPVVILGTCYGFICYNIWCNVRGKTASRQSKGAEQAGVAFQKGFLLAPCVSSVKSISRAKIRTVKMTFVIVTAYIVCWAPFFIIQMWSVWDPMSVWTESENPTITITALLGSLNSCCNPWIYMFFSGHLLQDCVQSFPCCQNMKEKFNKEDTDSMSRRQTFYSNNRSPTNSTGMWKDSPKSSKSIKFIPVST

SMILES | Ki [1] [nM] | IC50 [2] [nM]
COC1Cc2cc(Cl)ccc2-n2c(nnc2[C@H]2CC[C@H](N3CCOCC3)CC2)C1 (stereo partly drawn) [Example 130, 8-chloro-5-methoxy-1-[trans-4-(morpholin-4-yl)cyclohexyl]-5,6-dihydro-4H-[1,2,4]triazolo[4,3-a][1]benzazepine] | 2.4 | 6.1
CC(C)NC1Cc2cc(Cl)ccc2-n2c(nnc2C2CCN(c3ccccn3)CC2)C1 (stereo not drawn) [Example 135, 8-chloro-N-(propan-2-yl)-1-[l-(pyridin-2-yl)piperidin-4-yl]-5,6-dihydro-4H-[1,2,4]triazolo[4,3-a][1]benzazepin-5-amine] | 2.9 | 54
CC(C)(C)OC(=O)NC1Cc2cc(Cl)ccc2-n2c(nnc2N2CCN(c3ncccc3Cl)CC2)C1 (stereo not drawn) [Example 139, Tert-butyl {8-chloro-1-[4-(3-chloropyridin-2-yl)piperazin-1-yl]-5,6-dihydro-4H-[1,2,4]triazolo[4,3-a][1]benzazepin-5-yl}carbamate] | 9.3 | 130
COC1Cc2cc(Cl)ccc2-n2c(nnc2C2CCN(C(=O)OC(C)(C)C)CC2)C1 (stereo not drawn) [Example 140, Tert-butyl 4-(8-chloro-5-methoxy-5,6-dihydro-4H-[1,2,4]triazolo[4,3-a][1]benzazepin-1-yl)piperidine-1-carboxylate] | 2.4 | 57
CC(C)(C)OC(=O)NC1Cc2ccccc2-n2c(nnc2[C@H]2CC[C@H](Oc3ccccn3)CC2)C1 (stereo partly drawn) [Example 142, Tert-butyl {1-[trans-4-(pyridin-2-yloxy)cyclohexyl]-5,6-dihydro-4H-[1,2,4]triazolo[4,3-a][1]benzazepin-5-yl}carbamate] | 14.3 | 225
CC(C)(C)OC(=O)NC1Cc2cc(F)ccc2-n2c(nnc2[C@H]2CC[C@H](Oc3ccccn3)CC2)C1 (stereo partly drawn) [Example 143, Tert-butyl {8-fluoro-1-[trans-4-(pyridin-2-yloxy)cyclohexyl]-5,6-dihydro-4H-[1,2,4]triazolo[4,3-a][1]benzazepin-5-yl}carbamate] | 5 | 156
NC1Cc2ccccc2-n2c(nnc2[C@H]2CC[C@H](Oc3ccccn3)CC2)C1 (stereo partly drawn) [Example 144, 1-[trans-4-(pyridin-2-yloxy)cyclohexyl]-5,6-dihydro-4H-[1,2,4]triazolo[4,3-a][1]benzazepin-5-amine] | 34 | 168
NC1Cc2cc(F)ccc2-n2c(nnc2[C@H]2CC[C@H](Oc3ccccn3)CC2)C1 (stereo partly drawn) [Example 145, 8-fluoro-1-[trans-4-(pyridin-2-yloxy)cyclohexyl]-5,6-dihydro-4H-[1,2,4]triazolo[4,3-a][1]benzazepin-5-amine] | 12.7 | 47
CC(C)NC1Cc2cc(F)ccc2-n2c(nnc2[C@H]2CC[C@H](Oc3ccccn3)CC2)C1 (stereo partly drawn) [Example 146, 8-fluoro-N-(propan-2-yl)-1-[trans-4-(pyridin-2-yloxy)cyclohexyl]-5,6-dihydro-4H-[1,2,4]triazolo[4,3-a][1]benzazepin-5-amine] | 3.2 | 78
CC(C)NC1Cc2ccccc2-n2c(nnc2[C@H]2CC[C@H](Oc3ccccn3)CC2)C1 (stereo partly drawn) [Example 150, N-(propan-2-yl)-1-[trans-4-(pyridin-2-yloxy)cyclohexyl]-5,6-dihydro-4H-[1,2,4]triazolo[4,3-a][1]benzazepin-5-amine] | 5 | 94
O=C(N[C@H]1Cc2cc(Cl)ccc2-n2c(nnc2[C@H]2CC[C@H](Oc3ccccn3)CC2)C1)C1CCOCC1 [Example 151] | 30 | 209
CCC(C)C(=O)N[C@H]1Cc2cc(Cl)ccc2-n2c(nnc2[C@H]2CC[C@H](Oc3ccccn3)CC2)C1 (stereo partly drawn) [Example 152] | 67 | 737
CN(C)CCC(=O)N[C@H]1Cc2cc(Cl)ccc2-n2c(nnc2[C@H]2CC[C@H](Oc3ccccn3)CC2)C1 [Example 153, N-{(5S)-8-chloro-1-[trans-4-(pyridin-2-yloxy)cyclohexyl]-5,6-dihydro-4H-[1,2,4]triazolo[4,3-a][1]benzazepin-5-yl}-N^3,N^3-dimethyl-β-alaninamide] | 20.5 | 307
CCC(C)(C)C(=O)N[C@H]1Cc2cc(Cl)ccc2-n2c(nnc2[C@H]2CC[C@H](Oc3ccccn3)CC2)C1 [Example 158, N-{(5S)-8-chloro-1-[trans-4-(pyridin-2-yloxy)cyclohexyl]-5,6-dihydro-4H-[1,2,4]triazolo[4,3-a][1]benzazepin-5-yl}-2,2-dimethylbutanamide] | 62 | 1510
CC(C)(O)C(=O)N[C@H]1Cc2cc(Cl)ccc2-n2c(nnc2[C@H]2CC[C@H](Oc3ccccn3)CC2)C1 [Example 159, N-{(5S)-8-chloro-1-[trans-4-(pyridin-2-yloxy)cyclohexyl]-5,6-dihydro-4H-[1,2,4]triazolo[4,3-a][1]benzazepin-5-yl}-2-hydroxy-2-methylpropanamide] | 8 | 216
CC(C)CN[C@H]1Cc2cc(Cl)ccc2-n2c(nnc2[C@H]2CC[C@H](Oc3ccccn3)CC2)C1 [Example 161, (5S)-8-chloro-N-(2-methylpropyl-1-[trans-4-pyridin-2-yloxy)cyclohexyl]-5,6-dihydro-4H-[1,2,4]triazolo[4,3-a][1]benzazepin-5-amine] | 1.8 | 34

These reach a lower Ki [1]. Values come first.

Ki [1] [nM] | IC50 [2] [nM] | SMILES
0.5 | 20 | CC(C)N1CC[C@]2(CC[C@H](c3nnc4n3-c3ccc(Cl)cc3CC3(C4)OCCO3)CC2)C1=O [Example 129, (5s,8s)-8-(8′-chloro-4′H,6′H-spiro[1,3-dioxolane-2,5-[1,2,4]triazolo[4,3-a][1]benzazepin]-1′-yl)-2-(propan-2-yl)-2-azaspiro[4.5]decan-1-one]
0.3 | 0.7 | CCOC1Cc2cc(Cl)ccc2-n2c(nnc2[C@H]2CC[C@H](Oc3ccccn3)CC2)C1 (stereo partly drawn) [Example 131, 8-chloro-5-ethoxy-1-[trans-4-(pyridin-2-yloxy)cyclohexyl]-5,6-dihydro-4H-[1,2,4]triazolo[4,3-a][1]benzazepine]
0.2 | 1.5 | COC1Cc2cc(F)ccc2-n2c(nnc2[C@H]2CC[C@H](Oc3ccccn3)CC2)C1 (stereo partly drawn) [Example 134, 8-fluoro-5-methoxy-1-[trans-4-(pyridin-2-yloxy)cyclohexyl]-5,6-dihydro-4H-[1,2,4]triazolo[4,3-a][1]benzazepine]
0.2 | 1.6 | OCCOC1Cc2cc(Cl)ccc2-n2c(nnc2[C@H]2CC[C@H](Oc3ccccn3)CC2)C1 (stereo partly drawn) [Example 136, 2-({8-chloro-1-[trans-4-(pyridin-2-yloxy)cyclohexyl]-5,6-dihydro-4H-[1,2,4]triazolo[4,3-a][1]benzazepin-5-yl}oxy)ethanol]
0.7 | 9.2 | CCN(CC)[C@H]1Cc2cc(Cl)ccc2-n2c(nnc2[C@H]2CC[C@H](Oc3ccccn3)CC2)C1 [Example 137, (5S)-8-chloro-N,N-diethyl-1-[trans-4-(pyridin-2-yloxy)cyclohexyl]-5,6-dihydro-4H-[1,2,4]triazolo[4,3-a][1]benzazepin-5-amine]
0.2 | 5 | CC(C)N(C)C1Cc2cc(Cl)ccc2-n2c(nnc2[C@H]2CC[C@H](Oc3ccccn3)CC2)C1 (stereo partly drawn) [Example 138, 8-chloro-N-methyl-N-(propan-2-yl)-1-[trans-4-(pyridin-2-yloxy)cyclohexyl]-5,6-dihydro-4H-[1,2,4]triazolo[4,3-a][1]benzazepin-5-amine]
0.7 | 8.9 | CC(C)[C@@H](N)C(=O)N[C@@H]1Cc2cc(Cl)ccc2-n2c(nnc2[C@H]2CC[C@H](Oc3ccccn3)CC2)C1 [Example 141, N-{(5R)-8-chloro-1-[trans-4-(pyridin-2-yloxy)cyclohexyl]-5,6-dihydro-4H-[1,2,4]triazolo[4,3-a][1]benzazepin-5-yl}-D-valinamide]
1 | 9.4 | CN(C)C1Cc2cc(F)ccc2-n2c(nnc2[C@H]2CC[C@H](Oc3ccccn3)CC2)C1 (stereo partly drawn) [Example 147, 8-fluoro-N,N-dimethyl-1-[trans-4-(pyridin-2-yloxy)cyclohexyl]-5,6-dihydro-4H-[1,2,4]triazolo[4,3-a][1]benzazepin-5-amine]
1.2 | 26 | CN(C)C1Cc2ccccc2-n2c(nnc2[C@H]2CC[C@H](Oc3ccccn3)CC2)C1 (stereo partly drawn) [Example 148]
0.8 | 15 | Fc1ccc2c(c1)CC1(Cc3nnc([C@H]4CC[C@H](C(F)(F)F)CC4)n3-2)OCCO1 [Example 149, 8′-fluoro-1′-[trans-4-(trifluoromethyl)cyclohexyl]-4′H,6′H-spiro[1,3-dioxolane-2,5′-[1,2,4]triazolo[4,3-a][1]benzazepine]]
0.8 | 21 | Clc1ccc2c(c1)C[C@H](NC1CCCC1)Cc1nnc([C@H]3CC[C@H](Oc4ccccn4)CC3)n1-2 [Example 154, (5S)-8-chloro-N-cyclopentyl-1-[trans-4-(pyridin-2-yloxy)cyclohexyl]-5,6-dihydro-4H-[1,2,4]triazolo[4,3-a][1]benzazepin-5-amine]
0.04 | 0.7 | Clc1ccc2c(c1)CC1(Cc3nnc(N4CCC5(CC4)OCc4ccccc45)n3-2)OCCO1 [Example 155, 8′-chloro-1′-(1′H,3H-spiro[2-benzofuran-1,4′-piperidin]-1′-yl)-4′H,6′H-spiro[1,3-dioxolane-2,5′-[1,2,4]triazolo[4,3-a][1]benzazepine]]
0.5 | 9.5 | O=C1Cc2cc(Cl)ccc2-n2c(nnc2N2CCC3(CC2)OCc2ccccc23)C1 [Example 156, 8-chloro-1-(1′H,3H-spiro[2-benzofuran-1,4′-piperidin]-1′-yl)-4H-[1,2,4]triazolo[4,3-a][1]benzazepin-5(6H)-one]
0.4 | 4.9 | CCN(C)[C@H]1Cc2cc(Cl)ccc2-n2c(nnc2[C@H]2CC[C@H](Oc3ccccn3)CC2)C1 [Example 160]
